In brackets after ≈: the same amount, converted by molar mass.
Assay: Inhibition of AChE assessed as minimum drug level causing white zone of enzyme inhibition by TLC bioautography

SMILES | MIC
CCCCC12C3CC4C5[C@@H](C)[C@](O)([C@]6(O)OC(=O)C(C)=C6OC)O[C@]5(O3)C1CCN42 (some centres not stated) | 1.19 nM (≈ 0.501 ng/mL)
COC1=C(C)C(=O)O/C1=C1\O[C@@]23OC4CC(C2[C@H]1C)N1CCC3[C@]41/C=C/[C@@H](C)O (some centres not stated) | 1.25 nM (≈ 0.501 ng/mL)

From ChEMBL document CHEMBL1155467, “Semisynthesis and acetylcholinesterase inhibitory activity of stemofoline alkaloids and analogues” (J Nat Prod, 2010)
